Data from US4313931A, “Fused dibenzo imidazolo compounds, compositions and use” (Boehringer Ingelheim KG, priority 1980, dated 1982).
Where a name gives a salt, the structure may show the parent alone.

Legend:
[1] = system: sensitized rats (passive cutaneous anaphylaxis); experiment: passive cutaneous anaphylaxis (PCA) in sensitized rats; format: in vivo; conditions: po; rat p.o.
[2] = in vivo; conditions: po, mouse p.o.
[3] = system: sensitized rats (passive lung anaphylaxis); experiment: animal or person; conditions: Rattus norvegicus, iv, read-out: PLA ED50
Protocol: (a) Tests in sensitized rats were performed after passive sensitization of the animals by IgE-antibodies and subsequent antigen challenge. In this manner a passive cutaneous anaphylaxis (GOOSE et al. (1969): Immunology 16, 749) (PCA) and a passive lung anaphylaxis ([…] et al. (1975): Br. J. Pharmac. 55, 57) (PLA, experimental asthma) could be provoked.

Structure (SMILES)	ED50 [1] [mg/kg]	LD50 [2] [mg/kg]	ED50 [3] [mg/kg]
Cl.NC1=NCC2c3ccccc3Cc3cc(Cl)ccc3N12 (centres unmarked) [Example 1(a), 3-amino-7-chloro-9,13b-dihydro-1H-dibenzo[c,f]-imidazo[1,5-a]azepine hydrochloride]	0.96		
Br.NC1=NCC2c3ccccc3Oc3ccccc3N12 (centres unmarked) [Example 1(c), 3-amino-1,13b-dihydro-dibenzo[b,f]imidazo[1,5-d][1,4]-oxazepine hydrobromide]	1.1	340	
NC1=NCC2c3cc(Cl)ccc3Oc3ccccc3N12 (centres unmarked) [Example 1(d), 3-amino-12-chloro-1,13b-dihydro[b,f]imidazo[1,5-d][1,4]oxazepine hydrobromide]	2.5		
Br.NC1=NCC2c3ccccc3Sc3ccccc3N12 (centres unmarked) [Example 1(i), 3-amino-1,13b-dihydro-dibenzo[b,f]imidazo[1,5-d][1,4]-thiazepine hydrobromide]	3.8		
Br.NC1=NCC2c3cc(Cl)ccc3Sc3ccccc3N12 (centres unmarked) [Example 1(l), 3-amino-12-chloro-1,13b-dihydro-dibenzo[b,f]imidazo[1,5-d][1,4]thiazepine hydrobromide]	5.4		
NC1=NCC2c3ccccc3Cc3ccccc3N12 (centres unmarked) [Example 1, 3-Amino-9,13b-dihydro-1H-dibenzo[c,f]imidazo[1,5-a]azepine hydrobromide]	6		0.052
